Source: US8952024B2, “Herbicidal pyrimidone derivatives” (E I du Pont de Nemours and Company, priority 2009, dated 2015)

Assays:
Assay type in all cases: in vivo
[1] = system: morningglory (Ipomoea coccinea); assay: Test B pre-/postemergence plant response; conditions: for Morningglory plant response rating (0 to 100 scale): 62 g ai/ha, 0 is no effect, 13 to 15 days
Summary of the method: (§1)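 Greenhouse herbicide screen. Pre- and postemergence (1- to 4-leaf) spray of compound in solvent/surfactant mixture; loam–sand soil for pre, peat/vermiculite medium for post. Visual control rating 0–100 at 13 to 15 days after treatment.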

[2] = system: johnsongrass (Sorghum halepense); assay: Test B pre-/postemergence plant response; conditions: for Johnsongrass plant response rating (0 to 100 scale): 62 g ai/ha, 0 is no effect, 13 to 15 days
Summary of the method: as §1

[3] = system: giant foxtail (Setaria faberii); assay: Test B pre-/postemergence plant response; conditions: for Foxtail, Giant plant response rating (0 to 100 scale): 62 g ai/ha, 0 is no effect, 13 to 15 days
Summary of the method: as §1

[4] = system: goosegrass (Eleusine indica); assay: Test B pre-/postemergence plant response; conditions: for Goosegrass plant response rating (0 to 100 scale): 62 g ai/ha, 0 is no effect, 13 to 15 days
Summary of the method: as §1

[5] = system: woolly cupgrass (Eriochloa villosa); assay: Test B pre-/postemergence plant response; conditions: for Cupgrass, Woolly plant response rating (0 to 100 scale): 62 g ai/ha, 0 is no effect, 13 to 15 days
Summary of the method: as §1

[6] = system: wheat (Triticum aestivum); assay: Test B pre-/postemergence plant response; conditions: for Wheat plant response rating (0 to 100 scale): 62 g ai/ha, postemergence, 0 is no effect, 100 is complete control, 13 to 15 days; for Plant response rating, Wheat: Postemergence, 125 g ai/ha, scale 0 to 100 (0 no effect, 100 complete control)
Summary of the method: as §1

rice (Oryza sativa) = assay: Test B flooded paddy test; conditions: for Plant response rating, Rice: Flood (flooded paddy test), 13 to 15 days; for Rice plant response rating: Flood, 31 g ai/ha, scale 0 to 100 (0 no effect, 100 complete control)
Summary of the method: (§2)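 Each compound is added to standing floodwater (3 cm above soil, maintained) in pots of 2-leaf-stage plants; greenhouse exposure lasts 13–15 d before visual comparison with controls on a 0–100 control scale.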

[7] = system: barnyardgrass (Echinochloa crus-galli); assay: Test B flooded paddy test; conditions: for Plant response rating, Flood, Barnyardgrass: 250 g ai/ha, flooded paddy test, visual rating on 0 to 100 scale (0 no effect, 100 complete control) after 13 to 15 days; for Plant response rating, Barnyardgrass: Flood (flooded paddy test), 13 to 15 days; for Barnyardgrass plant response rating: Flood, 31 g ai/ha, scale 0 to 100 (0 no effect, 100 complete control)
Summary of the method: as §2

[8] = system: ducksalad (Heteranthera limosa); assay: Test B flooded paddy test; conditions: for Plant response rating, Flood, Ducksalad: 250 g ai/ha, flooded paddy test, visual rating on 0 to 100 scale (0 no effect, 100 complete control) after 13 to 15 days; for Plant response rating, Ducksalad: Flood (flooded paddy test), 13 to 15 days; for Ducksalad plant response rating: Flood, 31 g ai/ha, scale 0 to 100 (0 no effect, 100 complete control)
Summary of the method: as §2

[9] = system: umbrella sedge (Cyperus difformis); assay: Test B flooded paddy test; conditions: for Plant response rating, Flood, Sedge, Umbrella: 250 g ai/ha, flooded paddy test, visual rating on 0 to 100 scale (0 no effect, 100 complete control) after 13 to 15 days; for Plant response rating, Sedge, Umbrella: Flood (flooded paddy test), 13 to 15 days; for Sedge, Umbrella plant response rating: Flood, 31 g ai/ha, scale 0 to 100 (0 no effect, 100 complete control)
Summary of the method: as §2

[10] = system: pigweed (Amaranthus retroflexus); assay: Test A pre-/postemergence plant response
Summary of the method: (§3)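 Visually rated 0–100 injury (100 = complete control) versus untreated plants, ~10 days in greenhouse. Application pre- (soil spray, loam/sand) and postemergence (2–10 cm, 1–2 leaf stage), same timepoint.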

[11] = system: morningglory (Ipomoea spp.); assay: Test A pre-/postemergence plant response
Summary of the method: as §3

[12] = 31 g ai/ha, postemergence, scale 0 to 100, 0 is no effect, 100 is complete control
[13] = postemergence, 100 is complete control
[14] = Postemergence, 125 g ai/ha, scale 0 to 100 (0 no effect, 100 complete control)
[15] = Postemergence, 250 g ai/ha, scale 0 to 100 (0 no effect, 100 complete control)
[16] = 62 g ai/ha, scale of 0 to 100 where 0 is no effect and 100 is complete control
[17] = 125 g ai/ha, scale 0 to 100, 0 is no effect, 100 is complete control
[18] = Postemergence, 125 g ai/ha, 0 to 100 scale where 0 is no effect and 100 is complete control
[19] = Postemergence, 500 g ai/ha, 0 to 100 scale, 0 = no effect, 100 = complete control, approx. ten days
[20] = Preemergence, 125 g ai/ha, 0 to 100 scale, 0 = no effect, 100 = complete control
[21] = Preemergence, 500 g ai/ha, visual injury, 0 to 100 scale (0 no effect, 100 complete control), approx. ten days

In the case of `CCCn1c(-c2cccc(OC)c2)ncc(C(=O)C2=C(O)CCCC2=O)c1=O` [Compound 100], the “Plant response rating, Morningglory” value [1, 12] is reported as 60, the “Morningglory plant response rating (0 to 100 scale)” value [1, 13] is reported as 100 and the “Plant response rating, Morningglory” value [1, 14] is reported as 100. The “Plant response rating, Morningglory” value [1, 15] was 100, the “Plant response rating, Johnsongrass” value [2, 12] was 0 and the “Johnsongrass plant response rating (0 to 100 scale)” value [2, 13] was 5. The “Plant response rating, Johnsongrass” value [2, 14] was 10, the “Plant response rating, Johnsongrass” value [2, 15] was 25 and the “Plant response rating, Foxtail, Giant” value [3, 12] was 70. The “Foxtail, Giant plant response rating (0 to 100 scale)” value [3, 13] was 75, the “Plant response rating, Foxtail, Giant” value [3, 14] was 80 and the “Plant response rating, Foxtail, Giant” value [3, 15] was 85. For the same compound, the “Plant response rating, Goosegrass” value [4, 12] was 70, the “Goosegrass plant response rating (0 to 100 scale)” value [4, 13] was 70 and the “Plant response rating, Goosegrass” value [4, 14] was 75. For the same compound, the “Plant response rating, Goosegrass” value [4, 15] was 75, the “Cupgrass, Woolly plant response rating (0 to 100 scale)” value [5, 13] was 65 and the “Plant response rating, Cupgrass, Woolly” value [5, 14] was 70. The “Plant response rating, Cupgrass, Woolly” value [5, 15] was 75, the “Wheat plant response rating (0 to 100 scale)” value [6] was 5 and the “Plant response rating, Wheat” value [6] was 15. The “Plant response rating, Rice” value (rice (Oryza sativa); [16]) was 30, the “Plant response rating, Rice” value (rice (Oryza sativa); [17]) was 35 and the “Rice plant response rating” value (rice (Oryza sativa)) was 0. For the same compound, the “Plant response rating, Flood, Barnyardgrass” value [7] was 75, the “Plant response rating, Barnyardgrass” value [7, 16] was 45 and the “Plant response rating, Barnyardgrass” value [7, 17] was 60. The “Barnyardgrass plant response rating” value [7] was 20, the “Plant response rating, Flood, Ducksalad” value [8] was 85 and the “Plant response rating, Ducksalad” value [8, 16] was 75. For the same compound, the “Plant response rating, Ducksalad” value [8, 17] was 85, the “Ducksalad plant response rating” value [8] was 35 and the “Plant response rating, Flood, Sedge, Umbrella” value [9] was 85. The “Plant response rating, Sedge, Umbrella” value [9, 16] was 75, the “Plant response rating, Sedge, Umbrella” value [9, 17] was 80 and the “Sedge, Umbrella plant response rating” value [9] was 40. For the same compound, the “Plant response rating, Pigweed” value [10, 18] was 90, the “Plant response rating, Pigweed” value [10, 19] was 100 and the “Plant response rating, Pigweed” value [10, 20] was 80. The “Plant response rating, Pigweed” value [10, 21] was 100, the “Plant response rating, Morningglory” value [11, 18] was 90 and the “Plant response rating, Morningglory” value [11, 19] was 100. The “Plant response rating, Morningglory” value [11, 20] was 70 and the “Plant response rating, Morningglory” value [11, 21] was 80.

In the case of `COCCn1c(-c2cccs2)ncc(C(=O)C2=C(O)CCCC2=O)c1=O` [Compound 108], the “Plant response rating, Morningglory” value [1, 12] is reported as 75, the “Morningglory plant response rating (0 to 100 scale)” value [1, 13] is reported as 90 and the “Plant response rating, Morningglory” value [1, 14] is reported as 100. The “Plant response rating, Morningglory” value [1, 15] was 100, the “Plant response rating, Johnsongrass” value [2, 12] was 10 and the “Johnsongrass plant response rating (0 to 100 scale)” value [2, 13] was 20. The “Plant response rating, Johnsongrass” value [2, 14] was 20, the “Plant response rating, Johnsongrass” value [2, 15] was 60 and the “Plant response rating, Foxtail, Giant” value [3, 12] was 45. For the same compound, the “Foxtail, Giant plant response rating (0 to 100 scale)” value [3, 13] was 60, the “Plant response rating, Foxtail, Giant” value [3, 14] was 75 and the “Plant response rating, Foxtail, Giant” value [3, 15] was 80. The “Plant response rating, Goosegrass” value [4, 12] was 60, the “Goosegrass plant response rating (0 to 100 scale)” value [4, 13] was 70 and the “Plant response rating, Goosegrass” value [4, 14] was 75. The “Plant response rating, Goosegrass” value [4, 15] was 85, the “Plant response rating, Cupgrass, Woolly” value [5, 12] was 40 and the “Cupgrass, Woolly plant response rating (0 to 100 scale)” value [5, 13] was 60. The “Plant response rating, Cupgrass, Woolly” value [5, 14] was 70, the “Plant response rating, Cupgrass, Woolly” value [5, 15] was 75 and the “Wheat plant response rating (0 to 100 scale)” value [6] was 0. For the same compound, the “Plant response rating, Wheat” value [6] was 0, the “Plant response rating, Flood, Rice” value (rice (Oryza sativa); 250 g ai/ha, flooded paddy test, visual rating on 0 to 100 scale (0 no effect, 100 complete control) after 13 to 15 days) was 10 and the “Plant response rating, Rice” value (rice (Oryza sativa); [16]) was 0. For the same compound, the “Plant response rating, Rice” value (rice (Oryza sativa); [17]) was 0, the “Rice plant response rating” value (rice (Oryza sativa)) was 0 and the “Plant response rating, Flood, Barnyardgrass” value [7] was 30. For the same compound, the “Plant response rating, Barnyardgrass” value [7, 16] was 0, the “Plant response rating, Barnyardgrass” value [7, 17] was 15 and the “Barnyardgrass plant response rating” value [7] was 0. The “Plant response rating, Flood, Ducksalad” value [8] was 70, the “Plant response rating, Ducksalad” value [8, 16] was 50 and the “Plant response rating, Ducksalad” value [8, 17] was 60. For the same compound, the “Ducksalad plant response rating” value [8] was 40, the “Plant response rating, Flood, Sedge, Umbrella” value [9] was 95 and the “Plant response rating, Sedge, Umbrella” value [9, 16] was 40. For the same compound, the “Plant response rating, Sedge, Umbrella” value [9, 17] was 60, the “Sedge, Umbrella plant response rating” value [9] was 0 and the “Plant response rating, Pigweed” value [10, 18] was 100. For the same compound, the “Plant response rating, Pigweed” value [10, 19] was 100, the “Plant response rating, Pigweed” value [10, 20] was 90 and the “Plant response rating, Pigweed” value [10, 21] was 100. The “Plant response rating, Morningglory” value [11, 18] was 100, the “Plant response rating, Morningglory” value [11, 19] was 100 and the “Plant response rating, Morningglory” value [11, 20] was 80. For the same compound, the “Plant response rating, Morningglory” value [11, 21] was 90.
